We go through 33 molecules from patent publication US6110963A, “Aryl-oxo-acetic acids useful in the treatment of insulin resistance and hyperglycemia” (American Home Products Corporation, priority 1999, dated 2000).

The term IC50 denotes the concentration that gives 50% inhibition.

Like-named read-outs stand apart in the source and are kept apart here.

For experiment [1], the target named is T1, Human recombinant PTP1B (hPTP1B) (Homo sapiens, UniProt P18031).
T1 construct: made in house
T1 sequence (P18031 1-435): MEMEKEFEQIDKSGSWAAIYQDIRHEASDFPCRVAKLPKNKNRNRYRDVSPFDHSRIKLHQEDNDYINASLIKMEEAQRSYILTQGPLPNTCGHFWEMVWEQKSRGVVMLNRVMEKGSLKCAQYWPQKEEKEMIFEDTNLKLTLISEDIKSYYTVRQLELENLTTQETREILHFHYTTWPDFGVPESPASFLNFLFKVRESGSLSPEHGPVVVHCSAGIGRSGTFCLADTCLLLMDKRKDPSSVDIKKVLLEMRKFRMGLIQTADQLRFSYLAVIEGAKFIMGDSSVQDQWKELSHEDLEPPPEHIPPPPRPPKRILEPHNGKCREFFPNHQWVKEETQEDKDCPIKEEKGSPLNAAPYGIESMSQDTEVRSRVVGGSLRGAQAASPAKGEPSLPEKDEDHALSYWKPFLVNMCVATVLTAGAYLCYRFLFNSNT
It counts as biochemical. Particulars: for IC50: recombinant PTP1B, malachite green phosphate detection; for inhibition at 2.5 µM: read-out: change of PTP1B activity (percent of phosphatase control) at single concentration.

Experiment [2] has as its system rat hepatic microsomal PTPases. The settings on record: PTPase activity, compound at 50 μM, rat liver microsomes. (In general: Liver microsomes are a subcellular fraction often used to study metabolism.)
In experiment [3] the test system is diabetic (ob/ob) mice. Nature of the experiment: Blood glucose lowering activity in diabetic (ob/ob) mice. It counts as in vivo, mouse. Particulars: 100 mg/Kg; for % Change Glucose from Vehicle: plasma glucose. An excerpt:
The procedures used and results obtained are briefly described below.
The non-insulin dependent diabetic (NIDDM) syndrome can be typically characterizes by obesity, hyperglycemia, abnormal insulin secretion, hyperinsulinemia and insulin resistance.
In each test procedure, mice [Male or female ob/ob (C57 B1/6J) and their lean litermates (ob/+ or +/+, Jackson Laboratories) ages 2 to 5 months (10 to 65 g)] of a similar age were randomized according to body weight into 4 groups of 10 mice. The mice were housed 5 per cage and are maintained on normal rodent chow with water ad libitum. Mice received test compound daily by gavage (suspended in 0.5 ml of 0.5% methyl cellulose); dissolved in the drinking water; or admixed in the diet. The dose of compounds given ranges from 2.5 to 200 mg/kg body weight/day. The dose is calculated based on the fed weekly body weight and is expressed as active moiety. […] Control mice received vehicle only.
On the morning of Day 4, 7 or 14 two drops of blood (approximetly 50 ul) were collected into sodium fluoride containing tubes either from the tail vein or after decapitation. For those studies in which the compound was administered daily by gavage the blood samples were collected two hours after compound administration. The plasma was isolated by centrifugation and the concentration of glucose is measured enzymatically on an Abbott V. P. Analyzer.
For each mouse, the percentage change in plasma glucose on Day 4, 7 or 14 is calculated relative to the mean plasma glucose of the vehicle treated mice. Analysis of variance followed by Dunett's Comparison Test (one-tailed) are used to estimate the significant difference between the plasma glucose values from the control group and the individual compound treated groups (CMS SAS Release 5.18).

Turning to `CCCCc1oc2ccccc2c1C(O)c1ccc2cc(O)ccc2c1` (stereo not shown) [Example 1], the IC50 in experiment [1] came out at 1160 nM. The “% Change from Control” value in experiment [2] is reported as -31%.

In the case of `CCCCc1oc2ccccc2c1Cc1ccc2cc(O)ccc2c1` [Example 2], in experiment [1], the IC50 was found to be 1350 nM. In addition, the “% Change from Control” value in experiment [2] is listed as -37%.

For `CCCCc1oc2ccccc2c1Cc1ccc2c(Br)c(O)ccc2c1` [Example 3, 1-Bromo-6-(2-butyl-benzofuran-3-ylmethyl)-naphthalen-2-ol], the IC50 in experiment [1] was determined as 330 nM. In addition, in experiment [2], the “% Change from Control” value was -37%.

Take `CCCCc1oc2ccccc2c1Cc1ccc2c(Br)c(OCC(=O)O)ccc2c1` [Example 4, [1-Bromo-6-(2-butyl-benzofuran-3-ylmethyl)-naphthalen-2-yloxy]-acetic acid]: the IC50 in experiment [1] was 1440 nM. In experiment [2], the “% Change from Control” value is given as -65%.

On to `CCCCc1oc2ccccc2c1Cc1ccc2c(Br)c(OC(Cc3ccccc3)C(=O)O)ccc2c1` (stereo not shown) [Example 5, 2-[1-Bromo-6-(2-butyl-benzofuran-3-ylmethyl)-naphthalen-2-yloxy]-3-phenylpropionic acid], for which, in experiment [1], the IC50 came to 370 nM. Further, in experiment [2], the “% Change from Control” value is -59%. In addition, the “% Change Glucose from Vehicle” value in experiment [3] is given as -25.6%.

For `CCCCc1oc2ccccc2c1Cc1ccc2c(Br)c(OCc3nnn[nH]3)ccc2c1` [Example 6, 5-[1-Bromo-6-(2-butyl-benzofuran-3-ylmethyl)-naphthalen-2-yloxymethyl]-1H-tetrazole], in experiment [1], the IC50 came out at 700 nM. For the same molecule, the “% Change from Control” value in experiment [2] is -62%.

Take `CCCCc1oc2ccccc2c1Cc1ccc2c(I)c(O)ccc2c1` [Example 7, 6-(2-Butyl-benzofuran-3-ylmethyl)-1-iodo-naphthalen-2-ol]: the half-maximal inhibitory concentration (IC50) in experiment [1] was determined as 310 nM. In addition, the “% Change from Control” value in experiment [2] is -24%.

Consider `CCCCc1oc2ccccc2c1Cc1ccc2c(I)c(OC(Cc3ccccc3)C(=O)O)ccc2c1` (stereo not shown) [Example 8], for which the IC50 in experiment [1] turned out to be 310 nM. The “% Change from Control” value in experiment [2] is listed as -58%. In addition, in experiment [3], the “% Change Insulin from Vehicle” value is given as -33% and the “% Change Glucose from Vehicle” value is on record as -11%.

For the molecule `CCCCc1oc2ccccc2c1C(O)c1ccc2c(Br)c(O)ccc2c1` (stereo not shown) [Example 9, 1-Bromo-6-[(2-butyl-benzofuran-3-yl)-hydroxy-methyl]-naphthalen-2-ol], in experiment [1], the IC50 worked out at 480 nM. The “% Change Insulin from Vehicle” value in experiment [3] is listed as -38%.

For the molecule `CCCCc1oc2ccccc2c1C(=O)c1ccc2c(Br)c(OCC(=O)O)ccc2c1` [Example 10, [1-Bromo-6-(2-butyl-benzofuran-3-carbonyl)-naphthalen-2-yloxy]-acetic acid], the inhibition at 2.5 µM in experiment [1] (compound at 2.5 uM) amounted to 46%. In addition, the “% Change from Control” value in experiment [2] is listed as -69%.

Regarding `CCCCc1oc2ccccc2c1C(=O)c1ccc2c(Br)c(OC(Cc3ccccc3)C(=O)O)ccc2c1` (stereo not shown) [Example 11, 2-[1-Bromo-6-(2-butyl-benzofuran-3-carbonyl)-naphthalen-2-yloxy]-3-phenylpropionic acid], the IC50 in experiment [1] was found to be 1230 nM. Moreover, the “% Change from Control” value in experiment [2] was -77%.

As to `CCCCc1oc2ccccc2c1C(=O)c1ccc2c(Br)c(OCc3nnn[nH]3)ccc2c1` [Example 12, [5-bromo-6-(1H-tetrazol-5-ylmethoxy)-naphthalen-2-yl]-(2-butyl-benzofuran-3-yl)methanone], the IC50 in experiment [1] was 1130 nM. For the same molecule, the “% Change from Control” value in experiment [2] was -70%. Further, in experiment [3], the “% Change Insulin from Vehicle” value is listed as 12% and the “% Change Glucose from Vehicle” value is reported as -24.8%.

On to `Oc1ccc2cc(Cc3c(Cc4ccccc4)sc4ccccc34)ccc2c1Br` [Example 13, 6-(2-Benzyl-benzo[b]thiophen-3-ylmethyl)-1-bromo-naphthalen-2-ol], for which, in experiment [1], the 50% inhibitory concentration (IC50) amounted to 1040 nM. In addition, in experiment [2], the “% Change from Control” value is listed as -37%.

In the case of `CCCCc1oc2ccccc2c1C(O)c1ccc(-c2ccc(O)cc2)cc1` (stereo not shown) [Example 14, 4'-[(2-Butyl-benzofuran-3-yl)-hydroxy-methyl]-biphenyl-4-ol], the IC50 in experiment [1] worked out at 230 nM.

For the molecule `CCCCc1oc2ccccc2c1C(=O)c1ccc(-c2ccc(O)cc2)cc1` [Example 15, (2-Butyl-benzofuran-3-yl)-(4'-hydroxy-biphenyl-4-yl)-methanone], the inhibition at 2.5 µM in experiment [1] was determined as 53%. Also, the “% Change from Control” value in experiment [2] is -20%.

As for `CCCCc1oc2ccccc2c1Cc1ccc(-c2ccc(O)cc2)cc1` [Example 16], the IC50 in experiment [1] was 1190 nM. Moreover, in experiment [2], the “% Change from Control” value is -28%.

As to `CCCCc1oc2ccccc2c1Cc1ccc(-c2ccc(OCC(=O)O)cc2)cc1` [Example 17], the IC50 in experiment [1] came out at 1150 nM. The “% Change from Control” value in experiment [2] is reported as -76%.

With `CCCCc1oc2ccccc2c1Cc1ccc(-c2ccc(OCc3nnn[nH]3)cc2)cc1` [Example 18], in experiment [1], the IC50 came out at 510 nM.

Consider `CCCCc1oc2ccccc2c1C(O)c1ccc(-c2ccc(OCC(=O)O)cc2)cc1` (stereo not shown) [Example 19, {4'-[(2-Butyl-benzofuran-3-yl)-hydroxy-methyl]-biphenyl-4-yloxy}-acetic acid], for which the IC50 in experiment [1] came out at 540 nM. In experiment [2], the “% Change from Control” value was -24%.

Take `CCCCc1oc2ccccc2c1C(O)c1ccc(-c2cc(Br)c(O)c(Br)c2)cc1` (stereo not shown) [Example 20, 3,5-Dibromo-4'-[(2-butyl-benzofuran-3-yl)-hydroxy-methyl]-biphenyl-4-ol]: the IC50 in experiment [1] stood at 1400 nM. Further, in experiment [2], the “% Change from Control” value was -22%.

For the molecule `Oc1ccc(-c2ccc(C(O)c3c(Cc4ccccc4)sc4ccccc34)cc2)cc1` (stereo not shown) [Example 21, 4'-[(2-Benzyl-benzorblthiophen-3-yl)-hydroxy-methyl]-biphenyl-4-ol], in experiment [1] (compound at 2.5 uM), the inhibition at 2.5 µM turned out to be 36%.

As for `CCCCc1oc2ccccc2c1C(O)c1ncc(-c2ccc(OC)cc2)o1` (stereo not shown) [Example 22, (2-Butyl-benzofuran-3-yl)-[5-(4-methoxy-phenyl)-oxazole-2-yl]-methanol], the “% Change from Control” value in experiment [2] is on record as -38%.

Take `CCCCc1oc2ccccc2c1C(=O)c1ncc(-c2ccc(OC)cc2)o1` [Example 23, (2-Butyl-benzofuran-3-yl)-[5-(4-methoxy-phenyl)-oxazole-2-yl]-methanone]: the inhibition at 2.5 µM in experiment [1] (compound at 2.5 uM) is 55%.

As to `CCCCc1oc2ccccc2c1Cc1ncc(-c2ccc(OC)cc2)o1` [Example 24, 2-(2-Butyl-benzofuran-3-ymethyl)-5-(4-methoxy-phenyl)-oxazole], the inhibition at 2.5 µM in experiment [1] (compound at 2.5 uM) worked out at 35%.

As for `CCCCc1oc2ccccc2c1C(=O)c1nc(Br)c(-c2ccc(OC)cc2)o1` [Example 25, [4-Bromo-5-(4-methoxy-phenyl)-oxazol-2-yl]-(2-butyl-benzofuran-3-yl)-methanone], the half-maximal inhibitory concentration (IC50) in experiment [1] was 1360 nM.

Regarding `CCCCc1oc2cc(Br)ccc2c1Cc1nc(Br)c(-c2ccc(OC)cc2)o1` [Example 26], the 50% inhibitory concentration (IC50) in experiment [1] came out at 1240 nM.

On to `CCCCc1oc2ccccc2c1C(Sc1nc2ccccc2s1)c1ccc2cc(O)ccc2c1` (stereo not shown) [Example 27], for which the IC50 in experiment [1] was 1000 nM.

On to `CCCCc1oc2ccccc2c1C(Sc1nc2ccccc2s1)c1ccc(-c2ccc(O)cc2)cc1` (stereo not shown) [Example 28, 4'-[(2-Butyl-benzofuran-3-yl)-(benzothiazol-2-ylsulfanyl)-methyl]-biphenyl-4-ol], for which the IC50 in experiment [1] was 1160 nM.

Turning to `CCCCCCCC(Sc1nc2ccccc2s1)c1cc2ccccc2s1` (stereo not shown) [Example 29, 2-[1-(Benzorblthiophen-2-yl)-octylsulfanyl]-benzothiazole], the IC50 in experiment [1] was found to be 1860 nM. The “% Change from Control” value in experiment [2] was -24%.

With `CCCCc1oc2ccccc2c1C(Sc1nc2ccccc2s1)c1ccc(Br)cc1` (stereo not shown) [Example 30, 2-[(4-Bromo-phenyl)-(2-butyl-benzofuran-3-yl)-methylsulfanyl]-benzothiazole], the IC50 in experiment [1] was 580 nM.

Turning to `CCCCc1oc2ccccc2c1C(Sc1nc2ccccc2s1)c1ccc(Br)c2ccccc12` (stereo not shown) [Example 31, 2-[(4-Bromo-naphthalen-1-yl)-(2-butyl-benzofuran-3-yl)-methylsulfanyl]-benzothiazole], the IC50 in experiment [1] was 590 nM.

Take `CCCCc1oc2ccccc2c1C(Sc1nc2ccccc2s1)c1ccccc1` (stereo not shown) [Example 32]: the IC50 in experiment [1] came out at 1000 nM.

For `Brc1cc(Cc2ccc3ccccc3c2)cc(Br)c1OCc1nnn[nH]1` [Example 34, 5-[2,6-Dibromo-4-(naphthalen-2-ylmethyl)-phenoxymethyl]-1H-tetrazole], in experiment [3], the “% Change Insulin from Vehicle” value was -18% and the “% Change Glucose from Vehicle” value was -27.8%.
